Experimental data reported in ChEMBL document CHEMBL1177764, “Exploration of potential prodrug approach of the bis-thiazolium salts T3 and T4 for orally delivered antimalarials” (Bioorg Med Chem Lett, 2010).

What was measured:
Plasmodium falciparum = test: Antiplasmodial activity against Plasmodium falciparum; format: functional, organism-based
Plasmodium vinckei [1] = test: Antimalarial activity against Plasmodium vinckei infected in perorally dosed mice (Mus musculus); format: functional; details: po
Plasmodium vinckei [2] = test: Antimalarial activity against Plasmodium vinckei infected in intraperitoneally dosed mice (Mus musculus); format: functional; details: ip

C/C(=C1\CCOC(=S)S1)N(C=O)CCCCCCCCCCCCN(C=O)/C(C)=C1/CCOC(=S)S1
IC50 (Plasmodium falciparum): 4400 nM | ED50 (Plasmodium vinckei [1]): > 30 mg/kg

COCC/C(SC(C)=O)=C(\C)N(C=O)CCCCCCCCCCCCN(C=O)/C(C)=C(/CCOC)SC(C)=O
IC50 (Plasmodium falciparum): 1.1 nM

CCC(=O)S/C(CCOC)=C(/C)N(C=O)CCCCCCCCCCCCN(C=O)/C(C)=C(/CCOC)SC(=O)CC
IC50 (Plasmodium falciparum): 4.3 nM | ED50 (Plasmodium vinckei [2]): < 0.1 mg/kg | ED50 (Plasmodium vinckei [1]): 12 mg/kg

COCC/C(SC(=O)C(C)C)=C(\C)N(C=O)CCCCCCCCCCCCN(C=O)/C(C)=C(/CCOC)SC(=O)C(C)C
IC50 (Plasmodium falciparum): 1.1 nM | ED50 (Plasmodium vinckei [2]): 0.12 mg/kg | ED50 (Plasmodium vinckei [1]): 11 mg/kg

COCC/C(SC(=O)C1CC1)=C(\C)N(C=O)CCCCCCCCCCCCN(C=O)/C(C)=C(/CCOC)SC(=O)C1CC1
IC50 (Plasmodium falciparum): 2 nM | ED50 (Plasmodium vinckei [1]): 16 mg/kg

COCC/C(SC(=O)CC(C)C)=C(\C)N(C=O)CCCCCCCCCCCCN(C=O)/C(C)=C(/CCOC)SC(=O)CC(C)C
IC50 (Plasmodium falciparum): 2.4 nM | ED50 (Plasmodium vinckei [1]): 16 mg/kg

COCC/C(SC(=O)C(C)(C)C)=C(\C)N(C=O)CCCCCCCCCCCCN(C=O)/C(C)=C(/CCOC)SC(=O)C(C)(C)C
IC50 (Plasmodium falciparum): 6.7 nM

COCC/C(SC(=O)C1CCC1)=C(\C)N(C=O)CCCCCCCCCCCCN(C=O)/C(C)=C(/CCOC)SC(=O)C1CCC1
IC50 (Plasmodium falciparum): 3.6 nM

COCC/C(SC(=O)C1CCCC1)=C(\C)N(C=O)CCCCCCCCCCCCN(C=O)/C(C)=C(/CCOC)SC(=O)C1CCCC1
IC50 (Plasmodium falciparum): 8.2 nM | ED50 (Plasmodium vinckei [2]): 0.65 mg/kg | ED50 (Plasmodium vinckei [1]): 17 mg/kg

C/C=C/CC(=O)S/C(CCOC)=C(/C)N(C=O)CCCCCCCCCCCCN(C=O)/C(C)=C(/CCOC)SC(=O)C/C=C/C
IC50 (Plasmodium falciparum): 3.3 nM | ED50 (Plasmodium vinckei [1]): 16 mg/kg

COCC/C(SC(=O)c1ccccc1)=C(\C)N(C=O)CCCCCCCCCCCCN(C=O)/C(C)=C(/CCOC)SC(=O)c1ccccc1
IC50 (Plasmodium falciparum): 1.7 nM | ED50 (Plasmodium vinckei [2]): < 0.5 mg/kg | ED50 (Plasmodium vinckei [1]): 15 mg/kg

COCC/C(SC(=O)c1ccccc1C)=C(\C)N(C=O)CCCCCCCCCCCCN(C=O)/C(C)=C(/CCOC)SC(=O)c1ccccc1C
IC50 (Plasmodium falciparum): 110 nM | ED50 (Plasmodium vinckei [2]): 0.25 mg/kg | ED50 (Plasmodium vinckei [1]): 24 mg/kg

COCC/C(SC(=O)c1ccccc1C(F)(F)F)=C(\C)N(C=O)CCCCCCCCCCCCN(C=O)/C(C)=C(/CCOC)SC(=O)c1ccccc1C(F)(F)F
IC50 (Plasmodium falciparum): 2200 nM | ED50 (Plasmodium vinckei [2]): > 2.5 mg/kg | ED50 (Plasmodium vinckei [1]): > 90 mg/kg

COCC/C(SC(=O)COC)=C(\C)N(C=O)CCCCCCCCCCCCN(C=O)/C(C)=C(/CCOC)SC(=O)COC
IC50 (Plasmodium falciparum): 2.3 nM | ED50 (Plasmodium vinckei [2]): 1.9 mg/kg | ED50 (Plasmodium vinckei [1]): 80 mg/kg

COCC/C(SC(=O)Cc1ccco1)=C(\C)N(C=O)CCCCCCCCCCCCN(C=O)/C(C)=C(/CCOC)SC(=O)Cc1ccco1
IC50 (Plasmodium falciparum): 1.6 nM | ED50 (Plasmodium vinckei [1]): 14 mg/kg

COCC/C(SC(=O)CCC(=O)OC)=C(\C)N(C=O)CCCCCCCCCCCCN(C=O)/C(C)=C(/CCOC)SC(=O)CCC(=O)OC
IC50 (Plasmodium falciparum): 5.9 nM | ED50 (Plasmodium vinckei [2]): 0.4 mg/kg | ED50 (Plasmodium vinckei [1]): 10 mg/kg

COCC/C(SC(=O)CCC(C)=O)=C(\C)N(C=O)CCCCCCCCCCCCN(C=O)/C(C)=C(/CCOC)SC(=O)CCC(C)=O
IC50 (Plasmodium falciparum): 1.6 nM | ED50 (Plasmodium vinckei [2]): 0.15 mg/kg | ED50 (Plasmodium vinckei [1]): 3 mg/kg

COCC/C(SC(=O)C(C)(C)OC(C)=O)=C(\C)N(C=O)CCCCCCCCCCCCN(C=O)/C(C)=C(/CCOC)SC(=O)C(C)(C)OC(C)=O
IC50 (Plasmodium falciparum): 15.6 nM | ED50 (Plasmodium vinckei [2]): 60.3 mg/kg | ED50 (Plasmodium vinckei [1]): 57 mg/kg

COCC/C(SC(=O)c1ccc(CN2CCOCC2)cc1)=C(\C)N(C=O)CCCCCCCCCCCCN(C=O)/C(C)=C(/CCOC)SC(=O)c1ccc(CN2CCOCC2)cc1
IC50 (Plasmodium falciparum): 1.5 nM | ED50 (Plasmodium vinckei [2]): 3.4 mg/kg | ED50 (Plasmodium vinckei [1]): 90 mg/kg

COCC/C(SC(=O)C1CCCN1)=C(\C)N(C=O)CCCCCCCCCCCCN(C=O)/C(C)=C(/CCOC)SC(=O)C1CCCN1 (centres undefined)
IC50 (Plasmodium falciparum): 2.8 nM | ED50 (Plasmodium vinckei [1]): 17 mg/kg

COCC/C(SC(=O)c1cccnc1)=C(\C)N(C=O)CCCCCCCCCCCCN(C=O)/C(C)=C(/CCOC)SC(=O)c1cccnc1
IC50 (Plasmodium falciparum): 2.1 nM | ED50 (Plasmodium vinckei [1]): < 30 mg/kg

COCCc1sc[n+](CCCCCCCCCCCC[n+]2csc(CCOC)c2C)c1C.[Br-].[Br-]
ED50 (Plasmodium vinckei [2]): 0.14 mg/kg | ED50 (Plasmodium vinckei [1]): 8.1 mg/kg

CCOC(=O)S/C(CCOC)=C(/C)N(C=O)CCCCCCCCCCCCN(C=O)/C(C)=C(/CCOC)SC(=O)OCC
IC50 (Plasmodium falciparum): 2.9 nM | ED50 (Plasmodium vinckei [2]): 0.21 mg/kg | ED50 (Plasmodium vinckei [1]): 6.3 mg/kg

COCC/C(SC(=O)OC(C)C)=C(\C)N(C=O)CCCCCCCCCCCCN(C=O)/C(C)=C(/CCOC)SC(=O)OC(C)C
IC50 (Plasmodium falciparum): 6.2 nM | ED50 (Plasmodium vinckei [2]): < 0.1 mg/kg | ED50 (Plasmodium vinckei [1]): 6.8 mg/kg

CCCCOC(=O)S/C(CCOC)=C(/C)N(C=O)CCCCCCCCCCCCN(C=O)/C(C)=C(/CCOC)SC(=O)OCCCC
IC50 (Plasmodium falciparum): 5.6 nM | ED50 (Plasmodium vinckei [1]): 16 mg/kg

COCC/C(SC(=O)Oc1ccccc1)=C(\C)N(C=O)CCCCCCCCCCCCN(C=O)/C(C)=C(/CCOC)SC(=O)Oc1ccccc1
IC50 (Plasmodium falciparum): 3.5 nM | ED50 (Plasmodium vinckei [2]): 0.3 mg/kg | ED50 (Plasmodium vinckei [1]): 24 mg/kg

COCC/C(SC(=O)Oc1ccc([N+](=O)[O-])cc1)=C(\C)N(C=O)CCCCCCCCCCCCN(C=O)/C(C)=C(/CCOC)SC(=O)Oc1ccc([N+](=O)[O-])cc1
IC50 (Plasmodium falciparum): 3.1 nM | ED50 (Plasmodium vinckei [1]): > 30 mg/kg

COCC/C(SC(=O)OC(C)Cl)=C(\C)N(C=O)CCCCCCCCCCCCN(C=O)/C(C)=C(/CCOC)SC(=O)OC(C)Cl (centres undefined)
IC50 (Plasmodium falciparum): 10.6 nM | ED50 (Plasmodium vinckei [2]): 0.11 mg/kg | ED50 (Plasmodium vinckei [1]): 13 mg/kg

COCC/C(SC(=O)OCCBr)=C(\C)N(C=O)CCCCCCCCCCCCN(C=O)/C(C)=C(/CCOC)SC(=O)OCCBr
IC50 (Plasmodium falciparum): 2.7 nM | ED50 (Plasmodium vinckei [1]): 13 mg/kg

COCC/C(SC(=O)OCCF)=C(\C)N(C=O)CCCCCCCCCCCCN(C=O)/C(C)=C(/CCOC)SC(=O)OCCF
IC50 (Plasmodium falciparum): 2.2 nM | ED50 (Plasmodium vinckei [2]): 0.1 mg/kg | ED50 (Plasmodium vinckei [1]): 3.8 mg/kg

COCC/C(SC(=O)N1CCCC1)=C(\C)N(C=O)CCCCCCCCCCCCN(C=O)/C(C)=C(/CCOC)SC(=O)N1CCCC1
IC50 (Plasmodium falciparum): 310 nM | ED50 (Plasmodium vinckei [2]): > 5 mg/kg | ED50 (Plasmodium vinckei [1]): > 90 mg/kg

COCC/C(SC(=O)N1CCCC1=O)=C(\C)N(C=O)CCCCCCCCCCCCN(C=O)/C(C)=C(/CCOC)SC(=O)N1CCCC1=O
IC50 (Plasmodium falciparum): 29.5 nM | ED50 (Plasmodium vinckei [2]): 0.9 mg/kg | ED50 (Plasmodium vinckei [1]): 12 mg/kg

C/C(=C(\CCOC(=O)C(C)C)SC(=O)C(C)C)N(C=O)CCCCCCCCCCCCN(C=O)/C(C)=C(/CCOC(=O)C(C)C)SC(=O)C(C)C
IC50 (Plasmodium falciparum): 7 nM | ED50 (Plasmodium vinckei [2]): 1.2 mg/kg | ED50 (Plasmodium vinckei [1]): 60 mg/kg

COC(=O)CCC(=O)OCC/C(SC(=O)CCC(=O)OC)=C(\C)N(C=O)CCCCCCCCCCCCN(C=O)/C(C)=C(/CCOC(=O)CCC(=O)OC)SC(=O)CCC(=O)OC
IC50 (Plasmodium falciparum): 48 nM | ED50 (Plasmodium vinckei [2]): 0.5 mg/kg | ED50 (Plasmodium vinckei [1]): 13 mg/kg

COc1ccc(C(=O)OCC/C(SC(=O)c2ccc(OC)c(OC)c2OC)=C(\C)N(C=O)CCCCCCCCCCCCN(C=O)/C(C)=C(/CCOC(=O)c2ccc(OC)c(OC)c2OC)SC(=O)c2ccc(OC)c(OC)c2OC)c(OC)c1OC
IC50 (Plasmodium falciparum): 16.5 nM | ED50 (Plasmodium vinckei [2]): 1.8 mg/kg | ED50 (Plasmodium vinckei [1]): > 60 mg/kg

C/C(=C(\CCOC(=O)c1ccccc1C)SC(=O)c1ccccc1C)N(C=O)CCCCCCCCCCCCN(C=O)/C(C)=C(/CCOC(=O)c1ccccc1C)SC(=O)c1ccccc1C
IC50 (Plasmodium falciparum): 3500 nM | ED50 (Plasmodium vinckei [2]): > 20 mg/kg | ED50 (Plasmodium vinckei [1]): > 180 mg/kg

C/C(=C1\CCOC(=O)S1)N(C=O)CCCCCCCCCCCCN(C=O)/C(C)=C1/CCOC(=O)S1
IC50 (Plasmodium falciparum): 2.2 nM | ED50 (Plasmodium vinckei [2]): 0.25 mg/kg | ED50 (Plasmodium vinckei [1]): 5 mg/kg

COCC/C(SC(=O)OC)=C(\C)N(C=O)CCCCCCCCCCCCN(C=O)/C(C)=C(/CCOC)SC(=O)OC
IC50 (Plasmodium falciparum): 1.85 nM | ED50 (Plasmodium vinckei [2]): 0.072 mg/kg | ED50 (Plasmodium vinckei [1]): 1.3 mg/kg

Cc1c(CCO)sc[n+]1CCCCCCCCCCCC[n+]1csc(CCO)c1C.[Br-].[Br-] [ALBITIAZOLIUM BROMIDE]
ED50 (Plasmodium vinckei [2]): 0.2 mg/kg | ED50 (Plasmodium vinckei [1]): 13 mg/kg
